Laboratory results reported in US5468774A, “Tetronic, thiotetronic and tetramic acid derivatives as phospholipase A.sub ” (American Home Products Corporation, priority 1995, dated 1995).

Experiments:
5-lipoxygenase = assay: Resident murine peritoneal macrophage assay, LTC4 (5-lipoxygenase); type: cell-based, murine (female Swiss Webster mice); conditions: for inhibition at 0.5 µM: Peritoneal macrophage
Procedure: (§1) The ability of the compounds of the invention to act as inhibitors of the enzymes 5-lipoxygenase and cyclooxygenase is measured in the resident murine peritoneal macrophage assay.
(§2) Resident peritoneal macrophages are collected from female Swiss Webster mice (49 days old, 20-25 gms, Buckshire) by lavaging with 7-8 ml Hanks Balanced Salt Solution (HBSS) without Ca^++ and Mg^++ (GIBCO). The lavage fluid from several mice is pooled and centrifuged at 4° C. for 10 minutes at 400 xg.
(§3) Residual serum and cellular debris are removed from the monolayers by washing 3x with 2 ml HBSS containing Ca^++ and Mg^++. Macrophages are preincubated for 5 minutes with 1 ml serum-free M199 containing 10 μl dimethyl sulfoxide (DMSO) vehicle or test compound prior to cell activation with zymosan ([…]) or arachidonic acid (AA) (2 μM). After 2 hours, the supernatants are removed and either assayed for LTC4 and PGE2 by radioimmunoassay (RIA) directly or stored at -20° C. In all cases, results are expressed as ng metabolite/4×10^6 cells.
(§4) Raw data (dpm) may be stored directly onto an "Autostart" tape using the HP85 in room C-096. The raw data are converted to ng metabolite/4-10^6cells using the standard curve by a "RIANAL" program (HP85) or a "NONLIN" program (HP9816). Results are then expressed as percent inhibition of zymosan induced, leukotriene or prostaglandin synthesis (control) using the equation: [formula]

[1] = system: Platelet-Activating Factor Biosynthesis in Human Polymorphonuclear Neutrophils; assay: Inhibition of platelet-activating factor (PAF) biosynthesis in human polymorphonuclear neutrophils (in vitro phospholipase A2 assay); type: cell-based; conditions: Polymorphonuclear neutrophil, A23187 stimulated human PMN
Procedure: (§5) The compounds of the invention are tested in an in vitro phospholipase A2 assay to determine the ability of the compounds to inhibit the biosynthesis of platelet-activating factor and LTB4 in purified human neutrophils.
(§6) A leukocyte enriched blood sample obtained from a healthy donor is procured by leukophoresis using a Haemonetics model 30+ blood processor (Biological Specialties, Inc., Lansdale, Pa.). The top "platelet-rich" layer is removed after a low speed spin (35 xg, 15 min, 25° C.) of the sample. The remaining cell suspension is centrifuged (400 xg, 10 min, 25° C.) to sediment the remaining cells. The supernatant is discarded and the cell pellet resuspended in 120 ml HBSS (without Ca^++ /Mg^++). The cell suspension is subjected to ficoll-hypaque sedimentation (Histopaque 1077, 400 xg, 30 min, 25° C). Contaminating erythrocytes are lysed by hypotonic shock (1 min). The cells are then washed once with 40 ml of HBSS and resuspended with HBSS (without Ca^++ /Mg^++) to a concentration of 2.5×10^7 cells/ml for further use. Greater than 95% purity is obtained, as assessed by microscopic examination.
(§7) One ml of human PMN (2.5×10^7 cells/ml) is incubated with vehicle or drugs (10 μl) for 10 minutes at 30° C. After preincubation, an equal volume of HBSS (1 ml) containing 2.4 mM CaCl2, 6 μM calcium ionophore A23187 and 50 μCi[^3 H]-acetate is then incubated at 30° C. for 15 minutes. An aliquot (100 μl) of the reaction mixture is taken out and mixed with 900 μl of 15% ethanol. LTB4 is extracted by using solid phase extraction on reverse phase C18 columns to remove excess [^3 H]-acetate and PAD. […] The quantity of LTB4 in the sample is obtained from RIA determination. […] [^3 H]-PAF is resolved from other phospholipids by TLC on RPC18 plates with a solvent system of chloroform:methanol:water (2:3:1, v/v/v) and is quantitated using a Berthold automated TLC linear analyzer.
(§8) Data presented are the mean +/- s.d. of the values relative to control A23187 stimulated cells for each experiment assayed in triplicate. Percent inhibition when used is calculated as: […]

cyclooxygenase = assay: Resident murine peritoneal macrophage assay, PGE2 (cyclooxygenase); type: cell-based, murine (female Swiss Webster mice); conditions: mouse peritoneal macrophages; for inhibition at 0.5 µM: Peritoneal macrophage
Procedure: as §1
as §2, with “xg. The cell pellet is resuspended in Medium 199 (GIBCO) with HEPES buffer containing 100 μg/ml gentamicin. Two ml of the cell suspension (4×10^6 cells) are then plated on 35 mm culture dishes (Nunc).” for “xg.”
A macrophage monolayer is established after a 1-1.5 hour incubation of the cells at 37° C. in an atmosphere of 95% O2 and 5% CO2. The monolayers are washed 2x with 2 ml HBDSS, containing Ca^++ and Mg^++ after which 2 ml Medium 199 supplemented with 10% freshly thawed heat-inactivated fetal bovine serum and 100 μg/ml gentamicin is added for an overnight incubation.
as §3, §4

Human Platelet PLA2 = molecular target: T1, Human Platelet PLA2 (Homo sapiens, UniProt P14555); assay: In vitro isolated phospholipase A2 assay, arachidonic acid release from 3H-AA E. coli substrate, human platelet PLA2; type: biochemical; conditions: read-out: % Inhibition at 10 μM HP (human platelet)
T1 construct: Semipurified human platelet acid extract PLA2; from tissue; host or cells: human platelets (semipurified acid extract)
T1 sequence (P14555 21-144): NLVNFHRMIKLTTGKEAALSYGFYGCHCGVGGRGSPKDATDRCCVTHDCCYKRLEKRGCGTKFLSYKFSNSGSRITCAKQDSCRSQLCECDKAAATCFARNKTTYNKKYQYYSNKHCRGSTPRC
Procedure: (§9) The compounds of the invention are tested in an in vitro isolated phospholipase A2 assay to determine the ability of the test compounds to inhibit the release of arachidonic acid from an arachidonic acid-containing substrate by the action of phospholipase A2 enzyme from human and non-human sources.
(§10) Into a 15 mL polypropylene tube are added the following: […]
(§11) ^3 H-AA E. coli substrate^1
(§12) Tris-HCl (0.5M) pH 7.5^3
(§13) PLA2 25 Volume yielding 12%
(§14) *pre-incubate at room temperature 30 min prior to substrate addition.
(§15) ^1 Prepared by adding 2 mL deionized and distilled water to 2 mL
(§16) ^5 Stock 10 mM prepared in dimethyl sulfoxide. Make 1:2 dilution with
(§17) ^6 Two human PLA2 enzymes are used:
a) Semipurified human platelet acid extract PLA2 (in 10 Mm sodium
(§18) Incubate the 100μL reaction mixture for 10 minutes at 37° C. in a shaking water bath. The reaction is terminated by the addition of 2 mL tetrahydrofuran, followed by vortexing. NH2 columns ([…]--Analytichem International) are conditioned with 0.5 mL tetrahydrofuran followed by 0.5 mL tetrahydrofuran/water (2 mL:0.1 mL, v/v).
(§19) The sample is loaded onto the columns and slowly drawn through them. The hydrolyzed arachidonic acid retained in the columns is eluted therefrom with 1 mL tetrahydrofuran/glacial acetic acid (2%). The arachidonic acid is transferred to scintillation vials and quantitated by β-counting analysis. […]

Human Synovial PLA2 = molecular target: T2, Human Synovial PLA2 (Homo sapiens, UniProt P14555); assay: In vitro isolated phospholipase A2 assay, arachidonic acid release from 3H-AA E. coli substrate, human synovial fluid PLA2; type: biochemical; conditions: read-out: % Inhibition at 10 μM HSF (human synovial fluid)
T2 construct: Purified human synovial fluid; from tissue; host or cells: human synovial fluid (purified)
T2 sequence (P14555 21-144): T1 sequence (P14555 21-144)
Procedure: as §9, §10, §11, §12, §13, §14, §15, §16, §17
b) Purified human synovial fluid.
as §18, §19

[2] = system: LTB4 biosynthesis in human neutrophils; assay: Inhibition of LTB4 biosynthesis in purified human neutrophils (in vitro phospholipase A2 assay); type: cell-based; conditions: Neutrophil, A23187 stimulated human PMN
Procedure: as §5, §6, §7, §8

[3] = 0.5 μM, mouse peritoneal macrophages

inhibition at 10 µM (Human Platelet PLA2)	inhibition at 10 µM (Human Synovial PLA2)	LTC4 % Inhibition (5-lipoxygenase; [3])	PGE2 % Inhibition (cyclooxygenase; 0.5 μM)	Compound	IC50 (5-lipoxygenase; reference compounds)	inhibition at 10 µM [1]	inhibition at 0.5 µM (5-lipoxygenase; [3])	inhibition at 0.5 µM (cyclooxygenase)	inhibition at 10 µM [2]
-3.7%	41.9%			O=C(CCC1CCCCCCCCCCC1)C1=C(O)COC1=O [Example 1, 3-(3-Cyclododecyl-1-oxopropyl)-4-hydroxy-2(5H)-furanone]		84.3%	29%	46.7%	95.1%
18.2%	53%			O=C(CCC1CCCCCCCCCCC1)C1=C(O)CSC1=O [Example 2, 3-(3-cyclododecyl-1-oxopropyl)-4-hydroxy-2(5H)-thiophenone]		79.2%	76.1%	97.1%	69.6%
		33.0%	77.0%	O=C(COCC1CCCCCCCCCCC1)C1=C(O)CSC1=O [Example 16]					

Second part, the molecule before the results:

Compound	inhibition at 10 µM (Human Platelet PLA2)	inhibition at 10 µM (Human Synovial PLA2)	LTC4 % Inhibition (5-lipoxygenase; [3])	PGE2 % Inhibition (cyclooxygenase; 0.5 μM)	IC50 (5-lipoxygenase; reference compounds)	inhibition at 10 µM [1]	inhibition at 0.5 µM (5-lipoxygenase; [3])	inhibition at 0.5 µM (cyclooxygenase)	inhibition at 10 µM [2]
CCCCCC#CCC#CCC#CCC#CCCCC(=O)O [ETYA, reference compound]					440 nM				
CN1CC(O)=C(C(=O)CCC2CCCCCCCCCCC2)C1=O [Example 3, 3-(3-cyclododecyl-1-oxopropyl)-1.5-dihydro-4-hydroxy-1-methyl-1H-pyrrolin-2-one]						64.4%	66.2%	75.9%	90.4%
O=C(NCCC1CCCCCCCCCCC1)C1=C(O)COC1=O [Example 15, 4-Hydroxy-2-oxo-2,5-dihydro-furan-3-carboxylic acid-2-cyclododecyl-ethylamide]							25.9%	52%	
